Data: ChEMBL document CHEMBL1201862, “PubChem BioAssay data set” (2004)
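Exposure lasted 48 hours, with cells grown in 96-well plates and compounds tested at five concentrations. Here, GI50 denotes the concentration required for 50% inhibition of growth.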 Active and inactive are the calls of the source. Cut-off read from the data, not from the text of the source: active = GI50 up to about 1.1 µM and inactive = higher.

What was measured:
Test in all cases: inhibition of tumour cell growth, NCI panel, 48 h
[1] = tested on: 786-0
[2] = tested on: A498
[3] = tested on: A549
[4] = tested on: ACHN
[5] = tested on: CAKI-1
[6] = tested on: CCRF-CEM
[7] = tested on: COLO 205
[8] = tested on: DLD-1
[9] = tested on: DMS-114
[10] = tested on: DMS-273
[11] = tested on: EKVX
[12] = tested on: HCC 2998
[13] = tested on: HCT-15
[14] = tested on: HL-60
[15] = tested on: HOP-18
[16] = tested on: HOP-62
[17] = tested on: HOP-92
[18] = tested on: HT-29
[19] = tested on: IGROV-1
[20] = tested on: K562
[21] = tested on: KM12
[22] = tested on: LOX IMVI
[23] = tested on: LXFL 529
[24] = tested on: M14
[25] = tested on: M19-MEL
[26] = tested on: MOLT-4
[27] = tested on: Malme-3M
[28] = tested on: NCI-H226
[29] = tested on: NCI-H23
[30] = tested on: NCI-H522
[31] = tested on: OVCAR-3
[32] = tested on: OVCAR-4
[33] = tested on: OVCAR-5
[34] = tested on: OVCAR-8
[35] = tested on: RPMI-8226
[36] = tested on: RXF 393
[37] = tested on: RXF 631
[38] = tested on: SF-268
[39] = tested on: SF-295
[40] = tested on: SF-539
[41] = tested on: SK-MEL-28
[42] = tested on: SK-MEL-2
[43] = tested on: SK-MEL-5
[44] = tested on: SK-OV-3
[45] = tested on: SN12C
[46] = tested on: SNB-19
[47] = tested on: SNB-75
[48] = tested on: SNB-78
[49] = tested on: SW-620
[50] = tested on: TK-10
[51] = tested on: U-251
[52] = tested on: UACC-257
[53] = tested on: UACC-62
[54] = tested on: UO-31
[55] = tested on: XF498
[56] = tested on: HCT-116
[57] = tested on: KM-20L2
[58] = tested on: NCI-H460
[59] = tested on: SR

## c1ccc(/N=c2\snc3scc(-c4ccccc4)n23)cc1
[1]
  GI50: 50.5 µM (inactive)
[2]
  GI50: > 100 µM (inactive)
[3]
  GI50: 37.5 µM (inactive)
[4]
  GI50: 48 µM (inactive)
[5]
  GI50: 49.5 µM (inactive)
[6]
  GI50: 43.8 µM (inactive)
[7]
  GI50: 31.5 µM (inactive)
[8]
  GI50: 36.9 µM (inactive)
[9]
  GI50: 30.3 µM (inactive)
[10]
  GI50: 38.8 µM (inactive)
[11]
  GI50: 90.2 µM (inactive)
[12]
  GI50: 44.1 µM (inactive)
[13]
  GI50: 41.6 µM
[14]
  GI50: 40.6 µM (inactive)
[15]
  GI50: 24.8 µM (inactive)
[16]
  GI50: 30.5 µM (inactive)
[17]
  GI50: 34.2 µM (inactive)
[18]
  GI50: 50.5 µM (inactive)
[19]
  GI50: 41.8 µM (inactive)
[20]
  GI50: 52.6 µM (inactive)
[21]
  GI50: 36.5 µM (inactive)
[22]
  GI50: 34.4 µM (inactive)
[23]
  GI50: 33.5 µM (inactive)
[24]
  GI50: 33 µM (inactive)
[25]
  GI50: 32.3 µM (inactive)
[26]
  GI50: 29.3 µM (inactive)
[27]
  GI50: 31.6 µM (inactive)
[28]
  GI50: 26.7 µM (inactive)
[29]
  GI50: 36.6 µM (inactive)
[30]
  GI50: 18.7 µM (inactive)
[31]
  GI50: 22.8 µM (inactive)
[32]
  GI50: 39.6 µM (inactive)
[33]
  GI50: > 100 µM (inactive)
[34]
  GI50: 48.6 µM (inactive)
[35]
  GI50: 28.7 µM (inactive)
[36]
  GI50: 46.2 µM (inactive)
[37]
  GI50: 66.8 µM (inactive)
[38]
  GI50: 50.1 µM (inactive)
[39]
  GI50: 37.5 µM (inactive)
[40]
  GI50: 37.4 µM (inactive)
[41]
  GI50: 41 µM (inactive)
[42]
  GI50: 34.8 µM (inactive)
[43]
  GI50: 24.5 µM (inactive)
[44]
  GI50: 84.1 µM (inactive)
[45]
  GI50: 44.6 µM (inactive)
[46]
  GI50: 39.2 µM (inactive)
[47]
  GI50: > 100 µM (inactive)
[48]
  GI50: 57.3 µM (inactive)
[49]
  GI50: 39.4 µM (inactive)
[50]
  GI50: 66.2 µM (inactive)
[51]
  GI50: 26.8 µM (inactive)
[52]
  GI50: 32.5 µM (inactive)
[53]
  GI50: 30.1 µM (inactive)
[54]
  GI50: 27.6 µM (inactive)
[55]
  GI50: 32.1 µM (inactive)

## COC(OC)c1cccnc1C
[1]
  GI50: > 100 µM (inactive)
[3]
  GI50: > 100 µM (inactive)
[4]
  GI50: > 100 µM (inactive)
[5]
  GI50: > 100 µM (inactive)
[6]
  GI50: > 100 µM (inactive)
[7]
  GI50: > 100 µM (inactive)
[8]
  GI50: > 100 µM (inactive)
[9]
  GI50: > 100 µM (inactive)
[10]
  GI50: > 100 µM (inactive)
[11]
  GI50: > 100 µM (inactive)
[56]
  GI50: > 100 µM (inactive)
[13]
  GI50: > 100 µM
[14]
  GI50: > 100 µM (inactive)
[15]
  GI50: > 100 µM (inactive)
[16]
  GI50: > 100 µM (inactive)
[17]
  GI50: > 100 µM (inactive)
[18]
  GI50: > 100 µM (inactive)
[19]
  GI50: > 100 µM (inactive)
[20]
  GI50: > 100 µM (inactive)
[57]
  GI50: > 100 µM (inactive)
[21]
  GI50: > 100 µM (inactive)
[22]
  GI50: > 100 µM (inactive)
[23]
  GI50: > 100 µM (inactive)
[24]
  GI50: > 100 µM (inactive)
[25]
  GI50: > 100 µM (inactive)
[26]
  GI50: > 100 µM (inactive)
[27]
  GI50: > 100 µM (inactive)
[29]
  GI50: > 100 µM (inactive)
[58]
  GI50: > 100 µM (inactive)
[30]
  GI50: > 100 µM (inactive)
[31]
  GI50: > 100 µM (inactive)
[32]
  GI50: > 100 µM (inactive)
[33]
  GI50: > 100 µM (inactive)
[34]
  GI50: > 100 µM (inactive)
[36]
  GI50: > 100 µM (inactive)
[37]
  GI50: > 100 µM (inactive)
[38]
  GI50: > 100 µM (inactive)
[39]
  GI50: > 100 µM (inactive)
[40]
  GI50: > 100 µM (inactive)
[41]
  GI50: > 100 µM (inactive)
[42]
  GI50: > 100 µM (inactive)
[43]
  GI50: > 100 µM (inactive)
[44]
  GI50: > 100 µM (inactive)
[45]
  GI50: > 100 µM (inactive)
[46]
  GI50: > 100 µM (inactive)
[47]
  GI50: > 100 µM (inactive)
[48]
  GI50: > 100 µM (inactive)
[59]
  GI50: > 100 µM (inactive)
[49]
  GI50: > 100 µM (inactive)
[50]
  GI50: > 100 µM (inactive)
[51]
  GI50: > 100 µM (inactive)
[52]
  GI50: > 100 µM (inactive)
[53]
  GI50: > 100 µM (inactive)
[54]
  GI50: > 100 µM (inactive)
[55]
  GI50: > 100 µM (inactive)
